Experimental data as given in US7563570B2, “Method of determining a chemotherapeutic regimen for non small cell lung cancer based on BRCA1 expression” (Pangaea Biotech, priority 2004, dated 2009).

Key:
[1] = test system: non-small-cell lung cancer (NSCLC) patients; test: Neoadjuvant gemcitabine/cisplatin followed by surgery in stage IIB, IIIA and IIIB NSCLC patients, outcome by quartile of tumor BRCA1 mRNA expression; assay type: in vivo, human
Method: In all patients, neoadjuvant chemotherapy was indicated after evaluation by a thoracic surgeon, a radiologist, a medical oncologist, and a radiation oncologist. Patients received three cycles of neoadjuvant chemotherapy; 51 received cisplatin 100 mg/m^2 day 1 plus gemcitabine 1250 mg/m^2 days 1 and 8 every 21 days, and four received carboplatin AUC=5 day 1 plus gemcitabine 1000 mg/m^2 days 1 and 8 every 21 days. A thoracotomy was performed within four to five weeks after the last chemotherapy cycle; the surgical procedure was based on the extent of tumor at the time of the initial presentation.
We examined BRCA1 gene expression in formalin-fixed, paraffin-embedded surgical resected specimens from the 55 patients as previously described: Specht K, et al. (2001) Am. J. Pathol., 158, 419-429: “Quantitative gene expression analysis in microdissected archival formalin-fixed and paraffin-embedded tumor tissue”; Krafft A E, et al. (1997) Mol. Diagn., 3, 217-230: “Optimization of the isolation and amplification of RNA from formalin fixed, paraffin-embedded tissue: The Armed Forces Institute of Pathology experience and literature review”. After standard tissue sample deparaffinization using xylene and alcohols, samples were lysed in a tris-chloride, EDTA, sodium dodecyl sulphate (SDS) and proteinase K containing buffer. RNA was then extracted with phenol-chloroform-isoamyl alcohol followed by precipitation with isopropanol in the presence of glycogen and sodium acetate. RNA was resuspended in RNA storage solution (Ambion Inc; Austin Tex., USA) and treated with DNAse I to avoid DNA contamination. cDNA was synthesized using M-MLV retrotranscriptase enzyme. Template cDNA was added to Taqman Universal Master Mix (AB; Applied Biosystems, Foster City, Calif., USA) in a 12.5-μl reaction with specific primers and probe for each gene. The primer and probe sets were designed using Primer Express 2.0 Software (AB). Quantification of gene expression was performed using the ABI Prism 7900HT Sequence Detection System (AB). Primers and probe for BRCA1 mRNA expression analysis were designed according to the Ref Seq NM_007294 (www.ncbi.nlm.nih.gov/LocusLink). Forward primer is located in exon 8 (position 4292 bp to 4317 bp), reverse primer in exon 9 (position 4336 bp to 4360 bp), and probe in the exon 8/9 junction (position 4313 bp to 4333 bp). The PCR product size generated with these primers was 69 bp. The primers and 5′ labeled fluorescent reporter dye (6FAM) probe were as follows: β-actin: forward 5′ TGA GCG CGG CTA CAG CTT 3′, reverse 5′ TCCTTAATGTCACGCACGATTT 3′, probe 5′ ACC ACC ACG GCC GAG CGG 3′; BRCA1: forward 5′GGCTATCCTCTCAGAGTGACATTTTA 3′, reverse 5′ GCTTTATCAGGTTATGTTGCATGGT 3′, probe 5′ CCA CTC AGC AGA GGG 3′.
Relative gene expression quantification was calculated according to the comparative Ct method using β-actin as an endogenous control and commercial RNA controls (Stratagene, La Jolla, Calif.) as calibrators. Final results, were determined as follows: 2^−(ΔCt sample−ΔCt calibrator), where ΔCT values of the calibrator and sample are determined by subtracting the CT value of the target gene from the value of the β-actin gene. In all experiments, only triplicates with a standard deviation (SD) of the Ct value <0.20 were accepted. In addition, for each sample analyzed, a retrotranscriptase minus control was run in the same plate to assure lack of genomic DNA contamination (FIG. 1).
In order to provide an easily interpretable evaluation of the effect of BRCA1 mRNA expression, gene expression values were divided into quartiles. Interpatient variation coefficients were calculated to assess similarities between quartiles. Hazard ratios were calculated with the univariate Cox model, and comparison between Kaplan-Meier survival curves was performed with the log-rank test. […]

breast cancer cell line = conditions: BRCA1 mRNA determined by RT-QPCR; cited from earlier work
[2] = test system: Mouse models carrying conditional disruption of BRCA1; conditions: cited from earlier work
[3] = test system: SKOV-3 human ovarian cancer cell line; conditions: cited from earlier work
[4] = test system: HCC1937 breast cancer cell line; conditions: HCC1937, BRCA1 reconstituted vs BRCA1-negative; cited from earlier work
[5] = bottom quartile of BRCA1 levels
[6] = bottom quartile of BRCA1 levels, listed as Gemcitabine/Cisplatin
[7] = middle quartiles of BRCA1 levels
[8] = middle quartiles of BRCA1 levels, listed as Gemcitabine/Cisplatin
[9] = top quartile of BRCA1 levels, listed as Gemcitabine/Cisplatin

gemcitabine/cisplatin
Patients who attained a complete pathologic response (T0N0) ([1]; all in the bottom quartile of BRCA1 levels): Five
Median survival ([1]; all patients): 37.8 months
Risk of death, hazard ratio ([1]; bottom quartile compared to top quartile, unstratified): 0.187
Radiographic Response: Partial Response [1, 5]: 66.7%
Radiographic Response: Stable Disease [1, 5]: (33.3) %
Surgical Results: Complete Resection [1, 5]: 93.3%
Radiographic Response: Progressive Disease ([1]; bottom quartile of BRCA1 levels, number of patients): 0 N
Radiographic Response: Partial Response [1, 6]: (66.7) %
Surgical Results: Complete Resection [1, 6]: (93.3) %
Median survival ([1]; bottom quartile of BRCA1 mRNA levels (0.28-0.61), 15 patients): not reached
Radiographic Response: Partial Response [1, 7]: 57.1%
Radiographic Response: Progressive Disease [1, 7]: (7.1) %
Radiographic Response: Stable Disease [1, 7]: (35.7) %
Surgical Results: Complete Resection [1, 7]: 78.6%
Radiographic Response: Partial Response [1, 8]: (57.1) %
Surgical Results: Complete Resection [1, 8]: (78.6) %
Median survival ([1]; patients who underwent lobectomy): 51.9 months
Median survival ([1]; patients who underwent pneumonectomy): 25.8 months
Risk of death, hazard ratio ([1]; stratified by clinical stage, bottom quartile compared to top quartile): 0.220
Risk of death, hazard ratio ([1]; stratified by clinical stage, two middle quartiles compared to top quartile): 0.430
Risk of death, hazard ratio ([1]; stratified by pathologic stage, bottom quartile compared to top quartile): 0.206
Risk of death, hazard ratio ([1]; stratified by pathologic stage, two middle quartiles compared to top quartile): 0.294
Radiographic Response: Partial Response ([1]; top quartile of BRCA1 levels): 58.3%
Radiographic Response: Progressive Disease ([1]; top quartile of BRCA1 levels): (8.3) %
Radiographic Response: Stable Disease ([1]; top quartile of BRCA1 levels): (33.3) %
Surgical Results: Complete Resection ([1]; top quartile of BRCA1 levels): 83.3%
Radiographic Response: Partial Response [1, 9]: (58.3) %
Surgical Results: Complete Resection [1, 9]: (83.3) %
Median survival ([1]; top quartile of BRCA1 mRNA levels (2.45-10.43), 12 patients): 12.7 months
Risk of death, hazard ratio ([1]; two middle quartiles compared to top quartile, unstratified): 0.382
Median survival ([1]; two middle quartiles of BRCA1 mRNA levels (0.65-2.37), 28 patients): 37.8 months

CC[C@]1(O)C[C@H]2CN(CCc3c([nH]c4ccccc34)[C@@](C(=O)OC)(c3cc4c(cc3OC)N(C=O)[C@H]3[C@@](O)(C(=O)OC)[C@H](OC(C)=O)[C@]5(CC)C=CCN6CC[C@]43[C@@H]65)C2)C1 [vincristine]
Change of drug sensitivity on decreased BRCA1 mRNA expression (breast cancer cell line): greater resistance

CC(=O)O[C@H]1C(=O)[C@@]2(C)[C@H]([C@H](OC(=O)c3ccccc3)[C@]3(O)C[C@H](OC(=O)[C@H](O)[C@@H](NC(=O)c4ccccc4)c4ccccc4)C(C)=C1C3(C)C)[C@]1(OC(C)=O)CO[C@@H]1C[C@@H]2O [paclitaxel]
Change of drug sensitivity on decreased BRCA1 mRNA expression (breast cancer cell line): greater resistance

CC/C(=C(\c1ccccc1)c1ccc(OCCN(C)C)cc1)c1ccccc1 [tamoxifen]
Sensitivity of BRCA1-disrupted mouse models [2]: resistant

COc1cccc2c1C(=O)c1c(O)c3c(c(O)c1C2=O)C[C@@](O)(C(=O)CO)C[C@@H]3O[C@H]1C[C@H](N)[C@H](O)[C@H](C)O1 [doxorubicin]
Sensitivity of BRCA1-disrupted mouse models [2]: highly sensitive

COc1cc([C@@H]2c3cc4c(cc3[C@@H](O[C@@H]3O[C@@H]5CO[C@@H](C)O[C@H]5[C@H](O)[C@H]3O)[C@H]3COC(=O)[C@H]23)OCO4)cc(OC)c1O [etoposide]
Change of drug sensitivity on decreased BRCA1 mRNA expression (breast cancer cell line): greater sensitivity

N.N.[Cl][Pt][Cl] [cisplatin, cis-diaminodichloroplatinum]
Change of drug resistance on upregulation of BRCA1 expression [3]: increased cisplatin resistance
Change of drug sensitivity on decreased BRCA1 mRNA expression (breast cancer cell line): greater sensitivity
Increase in resistance on reconstitution of wild-type BRCA1 [4]: 20 fold
